Earlier results as cited in patent US11975103B2, “Compositions of midodrine and methods of using the same” (XENAMED CORP., priority 2016, dated 2024).

How the values were obtained:
[1] = test system: patients with neurogenic orthostatic hypotension
[2] = after oral administration of an immediate release tablet

Row | Compound | solubility in water | standing systolic blood pressure [1] | half-life [2] | time to peak plasma levels [2]
1 | COc1ccc(OC)c(C(O)CNC(=O)CN)c1.Cl (racemic) [Midodrine hydrochloride, (±)-2-amino-N-[2-(2,5-dimethoxyphenyl)-2-hydroxyethyl]acetamide monohydrochloride] | soluble in water | significantly increases | – | –
2 | COc1ccc(OC)c(C(O)CNC(=O)CN)c1 (stereo not shown) [midodrine] | – | – | approximately 25 minutes | about 30 minutes
